“Also recorded” adds a separate entry of the source.
Assays:
NPC-derived HLCs [1] = format: cell-based, human; settings: for cholesterol accumulation in NPC-HLCs (filipin staining): 1 mM hydroxypropyl-cyclodextrin, FIG. 18; for cholesterol accumulation in NPC-HLCs (filipin staining) / cholesterol accumulation in NPC-derived HLCs (filipin staining): 4 days; for cholesterol accumulation in NPC-derived HLCs (filipin staining): low concentration 100 μM, FIG. 19
Procedure: For hepatocyte-like cell (HLC) induction, the culture medium of semi-confluent human iPS cells were switched from the iPS medium to the definitive endoderm differentiation medium containing RPMI1640 supplemented with 2% B27 (Life technologies), 100 ng/m1 Activin A and 1 mM Sodium butyrate (NaB, SIGMA). The NaB concentration is changed in 0.5 mM on day 2. On day 4, the cells were harvested and re-seeded onto Matrigel-coated dishes in hepatic differentiation medium containing DMEM supplemented with 20% KSR, 1 mM glutamine, 1 mM NEAA, 0.1 mM 2-mercaptoethanol (SIGMA), 1% Dimethyl sulfoxide (DMSO, SIGMA). CXCR4 expressions were examined by FACS on day 4. On day 11, the cells were harvested and re-cultured in the hepatic maturation medium containing L15 medium (SIGMA) supplemented with 8.3% FBS, 8.3% tryptose phosphate broth (SIGMA), 10 mM hydrocortisone 21-hemisuccinate (SIGMA), 1 mM insulin (SIGMA), 2 mM glutamine, lOng/ml Hepatocyte growth factor (HGF, R & D) and 20 ng/ml Oncostatin M (OSM, R & D). On day 18, the cells were used for various experiments. For the hydroxypropyl cyclodextrin treatments, HLCs were cultured with 0.1 mM or 1 mM of the hydroxypropyl cyclodextrins for four days. For Annexin and TUNEL stainings, HLCs are cultured for four days and a week from day 18, respectively.
(§1) Alkaline phosphatase staining was performed using the Leukocyte Alkaline Phosphatase kit (SIGMA). For immunocytochemistry, cells were fixed with PBS containing 4% paraformaldehyde for 30 min at 4° C. For the molecules localized in nucleus, samples were treated with 0.2% Triton X-100 for 15 min at room temperature (RT). The cells were washed three times with PBS containing 2% FBS and then incubated overnight at 4° C. in PBS containing 2% FBS with primary antibodies. Nucleuses were stained with Propidium Iodide (PI, WAKO, Japan) and 1 mg/ml Hoechst 33258 (Invitrogen). The list of the primary and secondary antibodies is described in Table 3. For Filipin staining, samples were washed with PBS three times after the fixing and incubated with PBS containing 1.5 mg/ml glycine for 10 min at RT. The samples were then treated with PBS containing 10% FBS and 50 mg/ml Filipin (SIGMA). The data was calculated by UV absorption (360/460) and analyzed with Developer Toolbox software of IN CELL ANALYZER 6000 (GE Healthcare). The number of insoluble p62 granules were counted by IN CELL ANALYZER 6000 (GE Healthcare). To investigate glycogen accumulation, Periodic acid Schiff (PAS) staining of hepatocyte-like cells were performed by PAS staining solution (Muto Pure chemicals, Tokyo, Japan), according to the manufacturer's protocol.
The inventors therefore treated the HLCs derived from normal and NPC-iPS cell lines with a series of 2-hydroxypropyl-cyclodextrins with different cavity sizes, and observed effect of a series of hydroxypropyl-cyclodextrins. HLCs were cultured with 1 mM of the indicated hydroxypropyl-cyclodextrin for 4 days, stained with filipin and analyzed with an IN CELL ANALYSER (GE Healthcare) (FIG. 18).
(§2) The size of HLCs is decreased by the treatments with HPBCD and HPGCD (data not shown). Effects of various concentration of HPBCD and HPGCD in NPC-derived HLCs was observes. HLCs were cultured with HPBCD or HPGCD for 4 days, stained with filipin and analyzed with an IN CELL ANALYSER (GE Healthcare).

isolated erythrocyte = settings: in vitro; cited from earlier work
NPC-derived HLCs [2] = assay: Cell size of HLCs; format: cell-based, human; settings: data not shown
Procedure: The cell sizes of albumin-positive cells was calculated by Developer Toolbox software of IN CELL ANALYZER 6000 (GE Healthcare).
as §2

NPC-derived HLCs [3] = assay: Measurement of ATP in HLCs; format: cell-based, human; settings: 1 mM HPCD, 4 days; FIG. 21
Procedure: Hepatocyte-like cells derived from the iPSC lines were cultured in DMEM medium in the absence of glucose for 24 hours and were then cultured in the DMEM medium containing 10% FBS and high glucose for 6 hours. ATP was measured by ATP measurement Kit (TOYO INK), according to the manufacturer's protocol.
(§3) HLCs were culture with 1 mM 2-hydroxypropylcyclodextrins (HPCDs) for 4 days, and ATP level, expression levels of LC3 and p62, and insoluble p62 granules were measured.

LC3 = assay: Immunoblot of LC3 expression in HLCs; format: cell-based, human; settings: 1 mM HPCD, 4 days; FIG. 22
Procedure: (§4) Protein lysates were separated by SDS-PAGE and transferred to PVDF membrane. LC3-I and LCS3-II were detected by anti-LC3 antibody (Cell Signaling). The data are normalized to α-tubulin expression. The HLCs were solved in RIPA buffer and then insoluble p62 was collected as a pellet after the centrifuge of the samples.
as §3

p62 [4] = assay: Immunoblot of insoluble p62 in HLCs; format: cell-based, human; settings: 1 mM HPCD, 4 days; FIG. 23
Procedure: as §4, §3

p62 [5] = assay: Count of insoluble p62 granules in HLCs (IN CELL ANALYZER); format: cell-based, human; settings: 1 mM HPCD, 4 days; FIG. 24
Procedure: as §1, with “To investigate glycogen accumulation, Periodic acid Schiff (PAS) staining of hepatocyte-like cells were performed by PAS staining solution (Muto Pure chemicals, Tokyo, Japan), according to the manufacturer's protocol.” left out
as §3

NPC model mice [6] = assay: HPGCD treatment of NPC model mice (serum markers, histology, autophagy); format: in vivo, mouse
Procedure: Effects of HPGCD treatment on cholesterol accumulation in NPC-derived HLCs were evaluated using NPC-model mice. NPC model mice bear a spontaneous mutation of the Npc1 gene that causes a defect in lysosome to ER trafficking of cholesterol. […] The model mice show liver injury and neural functional impairment and die before 12 weeks old without proper treatment.
4-week-old NPC mice were treated with HPGCD (4000 mg/kg) once a week until 8.5 weeks of age (5 injections in total), followed by sample collection. Control was treated with saline. The experiments were conducted twice (first; n=6; second: n=4).

NPC model mice [7] = assay: Survival of NPC model mice; format: in vivo, mouse; settings: 4-week-old model mice injected once a week; FIG. 33
Procedure: To evaluate the effect of HPGCD treatment on NPC mice survival, 4-week-old model mice were injected with HPGCD one a week (HPGCD injection group: n=6, control (saline injection) group: n=6).

normal mice = assay: Acute toxicity test in normal mice; format: in vivo, mouse; settings: 14.4 mM, 19.18 ml/g subcutaneous, 8-week-old normal mice; FIG. 34
Procedure: To confirm the excellent safety of HPGCD, acute toxicity was tested using normal mice. 14.4 mM HPBCD or HPGCD were injected in the amount of 19.18 ml/g into subcutaneous tissues of 8-week-old mice (n=10), and then survival rates were calculated.

cultured cells = settings: Non-Patent Document 5; cited from earlier work
NPC-derived HLCs [8] = format: cell-based, human; settings: cells treated during HLC differentiation; FIG. 20
[9] = test system: Npc1 gene-defective (Npc1−/−) mice; settings: cited from earlier work
NPC child patients = settings: intravenous instillation 2500 mg/kg per time, 1 to 3 times per week, more than 1 year; cited from earlier work
NPC1-defective cells = settings: reported; cited from earlier work
[10] = 4000 mg/kg once a week from 4 to 8.5 weeks of age, FIG. 30

| Molecule | activity on hepatocyte-like cells differentiation-induced from NPC patient-derived iPS cells (NPC-derived HLCs [1]) | cholesterol accumulation in NPC-HLCs (filipin staining) (NPC-derived HLCs [1]) | hemolytic activity (order) (isolated erythrocyte) | cholesterol accumulated in hepatocyte-like cells derived from NPC (NPC-derived HLCs [1]) | function of the hepatocyte-like cells (NPC-derived HLCs [1]) | cholesterol accumulation in NPC-derived HLCs (filipin staining) (NPC-derived HLCs [1]) | size of HLCs (NPC-derived HLCs [2]) | ATP level (NPC-derived HLCs [3]) | expression level of LC3 (LC3) | amount of insoluble p62 (p62 [4]) | proportion of HLCs carrying more than 40 granules of insoluble p62 aggregation (p62 [5]) | survival after injection (acute toxicity) (normal mice) | other results |
| --- | --- | --- | --- | --- | --- | --- | --- | --- | --- | --- | --- | --- | --- |
| 2-Hydroxypropyl-α-cyclodextrin [HPACD] | no activity at all | did not show any effect on cholesterol accumulation | HPBCD>HPACD>HPGCD | – | – | – | – | – | – | – | – | – | – |
| 2-hydroxypropyl-γ-cyclodextrin [HPGCD] | equal to or more than that of HPBCD | reduced the cholesterol accumulation in NPC-HLCs to the same extent as that observed for HPBCD | HPBCD>HPACD>HPGCD | removed cholesterol accumulated in hepatocyte-like cells derived from NPC | recovered the function of the hepatocyte-like cells | ineffective for reducing cholesterol accumulation | decreased | recovered | recovered to normal levels | reduced the amount of insoluble p62 | greatly reduced | no mice dies | ALT (alanine aminotransferase), serum marker for liver injury (NPC model mice [6]; [10]): markedly and significantly reduced; AST (aspartate aminotransferase), serum marker for liver injury (NPC model mice [6]; [10]): markedly and significantly reduced; histological analysis of livers (NPC model mice [6]; 4000 mg/kg once a week, FIG. 31): marked morphological improvement; deletion of Purkinje cells in the cerebellum (NPC model mice [6]; 4000 mg/kg once a week, FIG. 32): rescued; also recorded: restored; abnormal autophagy in NPC mice (NPC model mice [6]; data not shown): restored; expression level of LC3 in livers and brains (NPC model mice [6]; data not shown): restored to the normal level; expression level of insoluble p62 in livers and brains (NPC model mice [6]; data not shown): restored to the normal level; NPC mouse survival (NPC model mice [7]): significantly prolonged; cholesterol dissolution activity (cultured cells): a several tenth part or less, compared with that of HPBCD |
| CC(O)COC[C@H]1O[C@@H]2O[C@H]3[C@H](O)[C@@H](O)[C@@H](O[C@H]4[C@H](O)[C@@H](O)[C@@H](O[C@H]5[C@H](O)[C@@H](O)[C@@H](O[C@H]6[C@H](O)[C@@H](O)[C@@H](O[C@H]7[C@H](O)[C@@H](O)[C@@H](O[C@H]8[C@H](O)[C@@H](O)[C@@H](O[C@H]1[C@H](O)[C@H]2O)O[C@@H]8COCC(C)O)O[C@@H]7COCC(C)O)O[C@@H]6COCC(C)O)O[C@@H]5COCC(C)O)O[C@@H]4COCC(C)O)O[C@@H]3COCC(C)O (stereo partly drawn) [HPBCD, 2-hydroxypropyl-β-cyclodextrin] | – | significantly decreased | HPBCD>HPACD>HPGCD | removed cholesterol accumulated in hepatocyte-like cells derived from NPC | recovered the function of the hepatocyte-like cells | ineffective for reducing cholesterol accumulation | decreased | recovered | recovered to normal levels | reduced the amount of insoluble p62 | greatly reduced | Almost all mice injected with HPBCD dies up to 72 hours after injection | free cholesterol accumulation, treatment during HLC differentiation (NPC-derived HLCs [8]): effective at the intermediate stages in hepatic differentiation; improving effect compared with systemic administration ([9]; directly administered into the brain): increased a few hundreds times; medical state or survival ([9]; intravenous administration): effective in improving the medical state or prolonging survival; nervous symptom (NPC child patients): has not been improved yet; splenohepatomegaly and brain wave (NPC child patients): certain effect of reduction of splenohepatomegaly and improvement in a brain wave; cholesterol accumulation in NPC1-defective cells (NPC1-defective cells): effective for reducing of cholesterol accumulation |

Source: patent publication US10588921B2, “Drug for the treatment of cholesterol accumulation disorders” (NATIONAL UNIVERSITY CORPORATION KUMAMOTO UNIVERSITY, priority 2013, dated 2020)
